According to ChEMBL document CHEMBL1201862, “PubChem BioAssay data set” (2004):
The source made the active and inactive calls.

Key:
[1] = biological target: T1, Heat shock factor protein 1 (Mus musculus, UniProt P38532); test: HSF1 potentiators in luciferase reporter cells, confirmation, cell-based, NIH3T3, luminescence, dose retest (AID 435004); assay type: functional;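 further: stress induced by proteasome inhibitor MG132 added 30 min after compound; luciferase reporter driven by HSF1 response element in NIH3T3 cells; actives raise luminescence as potentiators of the MG132 stress response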
T1 sequence (P38532 whole entry): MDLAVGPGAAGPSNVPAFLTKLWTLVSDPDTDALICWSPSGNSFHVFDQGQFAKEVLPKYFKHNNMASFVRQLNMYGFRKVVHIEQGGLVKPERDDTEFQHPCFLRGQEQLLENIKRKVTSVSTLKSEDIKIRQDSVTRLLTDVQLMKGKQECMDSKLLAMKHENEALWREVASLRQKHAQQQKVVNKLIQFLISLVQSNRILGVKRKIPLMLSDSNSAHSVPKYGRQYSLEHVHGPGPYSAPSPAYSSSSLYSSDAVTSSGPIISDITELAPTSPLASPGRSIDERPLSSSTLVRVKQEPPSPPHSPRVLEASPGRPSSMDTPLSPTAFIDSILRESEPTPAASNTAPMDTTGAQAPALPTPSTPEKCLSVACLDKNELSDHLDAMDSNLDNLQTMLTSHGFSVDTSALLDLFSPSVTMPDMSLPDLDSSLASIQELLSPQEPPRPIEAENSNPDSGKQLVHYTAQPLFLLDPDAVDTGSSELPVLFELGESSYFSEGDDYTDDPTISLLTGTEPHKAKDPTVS

[2] = biological target: T2, Protein RecA (Mycobacterium tuberculosis, UniProt P9WHJ3); test: Fluorescence Cell-Free Homogeneous Dose Retest to Identify Inhibitors of RecA-Intein Splicing Activity. [Related pubchem assays (depositor defined):AID2097, AID2223, AID489010, AID492950]; assay type: functional
T2 sequence (P9WHJ3 whole entry): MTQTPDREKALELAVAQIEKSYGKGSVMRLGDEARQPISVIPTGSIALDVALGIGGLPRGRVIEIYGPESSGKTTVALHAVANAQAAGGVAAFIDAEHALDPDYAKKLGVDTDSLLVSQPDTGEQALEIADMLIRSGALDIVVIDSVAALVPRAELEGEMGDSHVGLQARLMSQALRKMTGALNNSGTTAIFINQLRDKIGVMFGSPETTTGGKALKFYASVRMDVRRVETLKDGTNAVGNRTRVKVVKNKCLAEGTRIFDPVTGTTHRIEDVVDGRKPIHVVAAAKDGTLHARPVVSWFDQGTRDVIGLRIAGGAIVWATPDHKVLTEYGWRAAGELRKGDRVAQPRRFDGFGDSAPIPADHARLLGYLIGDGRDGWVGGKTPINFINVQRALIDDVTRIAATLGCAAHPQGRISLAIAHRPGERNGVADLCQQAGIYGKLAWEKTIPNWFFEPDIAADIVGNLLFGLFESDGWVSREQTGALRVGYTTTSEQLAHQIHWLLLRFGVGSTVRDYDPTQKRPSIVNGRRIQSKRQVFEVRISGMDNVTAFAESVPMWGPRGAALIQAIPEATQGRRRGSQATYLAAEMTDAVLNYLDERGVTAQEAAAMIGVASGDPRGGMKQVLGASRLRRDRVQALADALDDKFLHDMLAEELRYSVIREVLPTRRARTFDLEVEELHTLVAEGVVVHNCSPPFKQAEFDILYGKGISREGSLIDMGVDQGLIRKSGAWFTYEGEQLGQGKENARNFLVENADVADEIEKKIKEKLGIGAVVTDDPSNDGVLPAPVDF

[3] = biological target: T3, Replicative DNA helicase DnaB (Mycobacterium tuberculosis, UniProt P9WMR3); test: DnaB intein splicing inhibitors, dose response, biochemical, cell-free fluorescence (AID 449749); assay type: functional
T3 sequence (P9WMR3 whole entry): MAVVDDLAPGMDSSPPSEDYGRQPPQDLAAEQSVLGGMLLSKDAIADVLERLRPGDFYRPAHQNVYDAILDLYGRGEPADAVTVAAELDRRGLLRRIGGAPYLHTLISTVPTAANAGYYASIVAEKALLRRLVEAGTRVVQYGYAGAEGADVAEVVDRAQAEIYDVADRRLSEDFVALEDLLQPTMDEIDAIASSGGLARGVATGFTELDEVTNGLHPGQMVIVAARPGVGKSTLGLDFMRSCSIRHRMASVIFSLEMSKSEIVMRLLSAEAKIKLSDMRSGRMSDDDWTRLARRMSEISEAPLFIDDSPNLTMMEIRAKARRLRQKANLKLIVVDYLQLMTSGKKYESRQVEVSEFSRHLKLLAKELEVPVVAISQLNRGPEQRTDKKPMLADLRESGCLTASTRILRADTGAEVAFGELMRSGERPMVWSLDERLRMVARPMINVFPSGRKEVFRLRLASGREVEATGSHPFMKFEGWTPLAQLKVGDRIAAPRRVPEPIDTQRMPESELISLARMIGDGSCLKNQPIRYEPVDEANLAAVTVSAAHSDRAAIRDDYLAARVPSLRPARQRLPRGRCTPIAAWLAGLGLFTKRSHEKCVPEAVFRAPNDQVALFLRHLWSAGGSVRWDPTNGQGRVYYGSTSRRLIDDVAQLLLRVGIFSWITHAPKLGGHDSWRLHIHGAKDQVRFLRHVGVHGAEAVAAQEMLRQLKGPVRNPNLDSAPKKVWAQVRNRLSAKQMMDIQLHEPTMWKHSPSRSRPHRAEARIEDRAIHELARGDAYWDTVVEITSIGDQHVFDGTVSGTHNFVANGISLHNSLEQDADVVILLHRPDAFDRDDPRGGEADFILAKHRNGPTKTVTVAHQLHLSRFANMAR

[4] = biological target: Heat shock protein HSP 90-alpha (Homo sapiens, UniProt P07900); test: Luminescence-based dose response biochemical high throughput screening assay for inhibitors of the Heat Shock Protein 90 (HSP90). [Related pubchem assays: 1831 (Summary AID.), 1846 (Confirmation screen.), 1789 (Primary screen.)]
[5] = biological target: T4, Microphthalmia-associated transcription factor (Homo sapiens, UniProt O75030); test: TRPM1 promoter luciferase signal decrease, dose response, MITF inhibitor project, cell-based, SK-MEL-5, cherry-picked, set 3 (AID 493073); assay type: functional
T4 sequence (O75030 whole entry): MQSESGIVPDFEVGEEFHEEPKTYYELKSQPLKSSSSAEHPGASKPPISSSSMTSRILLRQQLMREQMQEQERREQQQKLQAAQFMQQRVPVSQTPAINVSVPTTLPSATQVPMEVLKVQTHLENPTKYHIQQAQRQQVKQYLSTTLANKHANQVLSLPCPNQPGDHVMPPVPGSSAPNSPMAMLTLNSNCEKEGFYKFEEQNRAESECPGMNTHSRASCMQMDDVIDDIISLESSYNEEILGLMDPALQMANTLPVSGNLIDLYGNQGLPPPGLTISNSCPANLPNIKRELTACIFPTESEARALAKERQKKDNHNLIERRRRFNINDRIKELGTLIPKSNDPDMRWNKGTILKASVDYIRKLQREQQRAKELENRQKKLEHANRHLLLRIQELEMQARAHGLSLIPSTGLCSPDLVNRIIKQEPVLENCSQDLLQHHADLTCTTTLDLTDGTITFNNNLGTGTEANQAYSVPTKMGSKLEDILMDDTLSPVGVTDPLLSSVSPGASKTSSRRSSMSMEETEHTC

| SMILES | EC50 [1] | EC50 [2] | AC50 [3] | IC50 [4] | AC50 [5] |
| --- | --- | --- | --- | --- | --- |
| COCCCNC(=O)c1ccc2c3c(onc13)-c1ccccc1C2=O | 3.48 µM (active) | 13 µM (active) |  |  |  |
| CCOC(=O)C1=C(c2ccc(OC)cc2)C(=O)c2ccccc2C1=O | 52.2 µM (active) | 1.83 µM (active) | 4.41 µM (active) | 0.322 µM (active) |  |
| CCCCn1c(NC(=O)c2ccccc2Cl)c(C#N)c2nc3ccccc3nc21 |  |  |  | 6.15 µM (active) |  |
| O=C1C(=O)c2ccccc2-c2ccccc21 [9,10-PHENANTHRENEQUINONE] |  | 7.45 µM (active) | 6.47 µM (active) |  |  |
| O=C1c2cc(F)ccc2-n2c1nc1ccccc1c2=O |  | > 380 µM (inactive) | > 120 µM (inactive) | 0.433 µM (active) | 1.05 µM (active) |
| CCc1ccc(OCC(=O)N/N=C2\CC(=O)c3ccccc32)cc1 |  | 1.24 µM (active) | 6.09 µM (active) |  |  |
| CCC(=O)OCCNc1cc(Sc2nccn2C)c2nonc2c1[N+](=O)[O-] | 4.5 µM (active) | 1.37 µM (active) | 2.9 µM (active) |  | 7.16 µM (active) |
| O=C1C=C(N(CCO)Cc2ccccc2)c2ccccc2C1=O |  | 0.402 µM (active) | > 380 µM (inconclusive) |  | 4.78 µM (active) |
